In patent US9695155B2, “Herbicidal substituted pyrimidinyloxy benzene compounds” (E. I. DU PONT DE NEMOURS AND COMPANY, priority 2013, dated 2017):

Tests used:
[1] = test system: oilseed rape; test: Test C postemergence; type: in vivo, Brassica napus; settings: Brassica napus, post-emergence
How it was run: (§1)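 Whole-plant greenhouse test with surfactant-containing solvent formulation, applied preemergence to sown loam–sand pots or postemergence to 2–18 cm plants. Scored by eye 13 to 15 days on, 0–100 scale.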

[2] = test system: ragweed; test: Test C postemergence; type: in vivo, Ambrosia elatior; settings: Ambrosia artemisiifolia, post-emergence
How it was run: as §1

[3] = test system: rice; test: Test B flooded paddy test; type: in vivo, Oryza sativa; settings: Oryza sativa; Flood, 250 g ai/ha; 0 to 100 scale where 0 is no effect and 100 is complete control; read-out: Plant response rating, Rice
How it was run: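 Flooded to 3 cm at the 2-leaf stage, pots received compound through the paddy water and were kept at that depth under greenhouse conditions. After 13–15 days, effect was rated by eye relative to controls, 0 = none and 100 = complete control.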

[4] = test system: wheat; test: Test A postemergence; type: in vivo, Triticum aestivum; settings: Triticum aestivum, post-emergence, 240 h
How it was run: (§2)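 Injury scores run from 0, no effect, to 100, complete control, judged by eye against untreated plants roughly 10 days after treatment. Chemicals carried a surfactant in a non-phytotoxic solvent and went onto loam–sand soil preemergence or onto one- to two-leaf seedlings postemergence.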

[5] = test system: morningglory; test: Test A postemergence; type: in vivo, Ipomoea spp.; settings: Ipomoea, post-emergence, 240 h
How it was run: as §2

[6] = test system: blackgrass; test: Test C postemergence; type: in vivo, Alopecurus myosuroides; settings: Alopecurus myosuroides, post-emergence
How it was run: as §1

[7] = test system: barnyardgrass; test: Test C preemergence; type: in vivo, Echinochloa crus-galli; settings: Echinochloa crus-galli, pre-emergence
How it was run: as §1

[8] = test system: soybean; test: Test C postemergence; type: in vivo, Glycine max; settings: Glycine max, post-emergence
How it was run: as §1

[9] = test system: giant foxtail; test: Test C postemergence; type: in vivo, Setaria faberii; settings: Setaria faberi, post-emergence
How it was run: as §1

[10] = test system: barnyardgrass; test: Test A preemergence; type: in vivo, Echinochloa crus-galli; settings: Echinochloa crus-galli, pre-emergence, 240 h
How it was run: as §2

[11] = test system: large (Lg) crabgrass; test: Test C preemergence; type: in vivo, Digitaria sanguinalis; settings: Digitaria sanguinalis, pre-emergence
How it was run: as §1

[12] = test system: blackgrass; test: Test C preemergence; type: in vivo, Alopecurus myosuroides; settings: Alopecurus myosuroides, pre-emergence
How it was run: as §1

[13] = test system: wheat, winter; test: Test C preemergence; type: in vivo, Triticum aestivum; settings: Triticum aestivum, pre-emergence
How it was run: as §1

[14] = test system: soybean; test: Test C preemergence; type: in vivo, Glycine max; settings: Glycine max, pre-emergence
How it was run: as §1

N#Cc1cccc(Oc2ncc(Br)cn2)c1-n1cc(C(F)(F)F)cn1 [Compound 59, 3-[(5-bromo-2-pyrimidinyl)oxy]-2-[4-(trifluoromethyl)-1H-pyrazol-1-yl]benzonitrile]
plant injury at 125 g/ha ([1]; 125 g ai/ha, postemergence, read-out: Plant response rating (0 to 100), Oilseed Rape): 85%
plant injury at 250 g/ha ([1]; 250 g ai/ha, postemergence, read-out: Plant response rating (0 to 100), Oilseed Rape): 95%
plant injury at 31 g/ha ([1]; Postemergence, 31 g ai/ha, scale 0 to 100 (0 no effect, 100 complete control), 13 to 15 days, read-out: Plant response rating, Oilseed Rape): 50%
plant injury at 62 g/ha ([1]; Postemergence, 62 g ai/ha, scale 0 to 100 (0 no effect, 100 complete control), read-out: Plant response rating, Oilseed Rape): 50%
pest or weed control at 125 g/ha ([2]; 125 g ai/ha, postemergence, read-out: Plant response rating (0 to 100), Ragweed): 25%
pest or weed control at 250 g/ha ([2]; 250 g ai/ha, postemergence, read-out: Plant response rating (0 to 100), Ragweed): 55%
pest or weed control at 31 g/ha ([2]; Postemergence, 31 g ai/ha, scale 0 to 100 (0 no effect, 100 complete control), 13 to 15 days, read-out: Plant response rating, Ragweed): 10%
pest or weed control at 62 g/ha ([2]; Postemergence, 62 g ai/ha, scale 0 to 100 (0 no effect, 100 complete control), read-out: Plant response rating, Ragweed): 25%
plant injury at 250 g/ha [3]: 20%
plant injury at 125 g/ha ([4]; 125 g ai/ha, 0 to 100 scale where 0 is no effect and 100 is complete control, read-out: Plant response rating, Wheat): 70%
plant injury at 500 g/ha ([4]; 500 g ai/ha, 0 to 100 scale, 0 no effect, 100 complete control, read-out: Plant response rating Wheat): 100%
pest or weed control at 125 g/ha ([5]; 125 g ai/ha, 0 to 100 scale where 0 is no effect and 100 is complete control, read-out: Plant response rating, Morningglory): 90%
pest or weed control at 500 g/ha ([5]; 500 g ai/ha, 0 to 100 scale, 0 no effect, 100 complete control, read-out: Plant response rating Morningglory): 100%
pest or weed control at 125 g/ha ([6]; 125 g ai/ha, postemergence, read-out: Plant response rating (0 to 100), Blackgrass): 25%
pest or weed control at 250 g/ha ([6]; 250 g ai/ha, postemergence, read-out: Plant response rating (0 to 100), Blackgrass): 40%
pest or weed control at 31 g/ha ([6]; Postemergence, 31 g ai/ha, scale 0 to 100 (0 no effect, 100 complete control), 13 to 15 days, read-out: Plant response rating, Blackgrass): 5%
pest or weed control at 62 g/ha ([6]; Postemergence, 62 g ai/ha, scale 0 to 100 (0 no effect, 100 complete control), read-out: Plant response rating, Blackgrass): 10%
pest or weed control at 62 g/ha ([7]; 62 g ai/ha, preemergence, scale 0 (no effect) to 100 (complete control), read-out: Barnyardgrass plant response rating): 100%
pest or weed control at 125 g/ha ([7]; 125 g ai/ha, preemergence, scale 0 (no effect) to 100 (complete control), read-out: Barnyardgrass plant response rating): 100%
pest or weed control at 250 g/ha ([7]; 250 g ai/ha, preemergence, scale 0 (no effect) to 100 (complete control), read-out: Barnyardgrass plant response rating): 100%
pest or weed control at 31 g/ha ([7]; Preemergence, 31 g ai/ha, scale 0 to 100, 0 no effect, 100 complete control, read-out: Plant response rating, Barnyardgrass): 80%
Soybean plant response rating (crop injury, 0-100 scale) at 125 g/ha ([8]; 125 g ai/ha, postemergence, read-out: Plant response rating (0 to 100), Soybean): 98%
Soybean plant response rating (crop injury, 0-100 scale) at 250 g/ha ([8]; 250 g ai/ha, postemergence): 98%
Soybean plant response rating (crop injury, 0-100 scale) at 31 g/ha ([8]; Postemergence, 31 g ai/ha, scale 0 to 100 (0 no effect, 100 complete control), 13 to 15 days): 75%
Soybean plant response rating (crop injury, 0-100 scale) at 62 g/ha ([8]; Postemergence, 62 g ai/ha, scale 0 to 100 (0 no effect, 100 complete control)): 85%
pest or weed control at 125 g/ha ([9]; 125 g ai/ha, postemergence, read-out: Plant response rating (0 to 100), Foxtail, Giant): 45%
pest or weed control at 250 g/ha ([9]; 250 g ai/ha, postemergence, read-out: Plant response rating (0 to 100), Foxtail, Giant): 90%
pest or weed control at 31 g/ha ([9]; Postemergence, 31 g ai/ha, scale 0 to 100 (0 no effect, 100 complete control), 13 to 15 days, read-out: Plant response rating, Foxtail, Giant): 10%
pest or weed control at 62 g/ha ([9]; Postemergence, 62 g ai/ha, scale 0 to 100 (0 no effect, 100 complete control), read-out: Plant response rating, Foxtail, Giant): 45%
pest or weed control at 125 g/ha ([10]; 125 g ai/ha, 0 to 100 scale where 0 is no effect and 100 is complete control, read-out: Plant response rating, Barnyardgrass): 80%
pest or weed control at 500 g/ha ([10]; 500 g ai/ha, 0 to 100 scale, 0 no effect, 100 complete control, approx. 10 days, read-out: Barnyardgrass plant response rating): 100%
pest or weed control at 62 g/ha ([11]; 62 g ai/ha, preemergence, scale 0 (no effect) to 100 (complete control), read-out: Crabgrass, Large plant response rating): 100%
pest or weed control at 125 g/ha ([11]; 125 g ai/ha, preemergence, scale 0 (no effect) to 100 (complete control), read-out: Crabgrass, Large plant response rating): 100%
pest or weed control at 250 g/ha ([11]; 250 g ai/ha, preemergence, scale 0 (no effect) to 100 (complete control), read-out: Crabgrass, Large plant response rating): 100%
pest or weed control at 31 g/ha ([11]; Preemergence, 31 g ai/ha, scale 0 to 100, 0 no effect, 100 complete control, read-out: Plant response rating, Crabgrass, Large): 100%
pest or weed control at 62 g/ha ([12]; 62 g ai/ha, preemergence, scale 0 (no effect) to 100 (complete control), read-out: Blackgrass plant response rating): 85%
pest or weed control at 125 g/ha ([12]; 125 g ai/ha, preemergence, scale 0 (no effect) to 100 (complete control), read-out: Blackgrass plant response rating): 90%
pest or weed control at 250 g/ha ([12]; 250 g ai/ha, preemergence, scale 0 (no effect) to 100 (complete control), read-out: Blackgrass plant response rating): 90%
pest or weed control at 31 g/ha ([12]; Preemergence, 31 g ai/ha, scale 0 to 100, 0 no effect, 100 complete control, read-out: Plant response rating, Blackgrass): 5%
plant injury at 62 g/ha ([13]; 62 g ai/ha, preemergence, scale 0 (no effect) to 100 (complete control), read-out: Wheat plant response rating): 50%
plant injury at 125 g/ha ([13]; 125 g ai/ha, preemergence, scale 0 (no effect) to 100 (complete control), read-out: Wheat plant response rating): 85%
plant injury at 250 g/ha ([13]; 250 g ai/ha, preemergence, scale 0 (no effect) to 100 (complete control), read-out: Wheat plant response rating): 90%
plant injury at 31 g/ha ([13]; Preemergence, 31 g ai/ha, scale 0 to 100, 0 no effect, 100 complete control, read-out: Plant response rating, Wheat): 0%
plant injury at 62 g/ha ([14]; 62 g ai/ha, preemergence, scale 0 (no effect) to 100 (complete control), read-out: Soybean plant response rating): 90%
plant injury at 125 g/ha ([14]; 125 g ai/ha, preemergence, scale 0 (no effect) to 100 (complete control), read-out: Soybean plant response rating): 90%
plant injury at 250 g/ha ([14]; 250 g ai/ha, preemergence, scale 0 (no effect) to 100 (complete control), read-out: Soybean plant response rating): 95%
plant injury at 31 g/ha ([14]; Preemergence, 31 g ai/ha, scale 0 to 100, 0 no effect, 100 complete control, read-out: Plant response rating, Soybean): 85%
